According to patent US9944600B2, “Piperidine derivatives for GPR119 agonist” (CHONG KUN DANG PHARMACEUTICAL CORP., priority 2012, dated 2018):

Molecular target: T1, human GPR119 receptor (Homo sapiens, UniProt Q8TDV5)
T1 construct: host or cells: GeneBLAzer T-Rex GPR 119 CHO-K1 DA cells (CHO-K1)
T1 sequence (Q8TDV5 1-335): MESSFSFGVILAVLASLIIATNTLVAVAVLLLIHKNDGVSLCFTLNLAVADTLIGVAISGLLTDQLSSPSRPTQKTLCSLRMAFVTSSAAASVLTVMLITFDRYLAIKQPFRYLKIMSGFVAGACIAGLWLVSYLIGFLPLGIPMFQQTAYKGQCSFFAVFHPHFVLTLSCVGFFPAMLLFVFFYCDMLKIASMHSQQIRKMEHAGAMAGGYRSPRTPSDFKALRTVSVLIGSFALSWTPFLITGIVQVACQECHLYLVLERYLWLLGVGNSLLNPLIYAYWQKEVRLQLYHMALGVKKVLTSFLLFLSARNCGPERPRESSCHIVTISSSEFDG
Assay: Activity test for human GPR119 receptor (GeneBLAzer T-Rex GPR 119 CHO-K1 DA cells, fluorescence reporter)
Format: cell-based
Conditions: 5 hours treatment; for activity at 0.1 µM: test compound conc. 0.1 μM; for activity at 0.1 µM / activity at 1 µM / activity at 10 µM: human GPR119 CHO-K1 reporter cells, ratio to vehicle control well, read-out: % Activation; for activity at 1 µM: test compound conc. 1 μM; for activity at 10 µM: test compound conc. 10 μM
Protocol: As a human GPR119 receptor expression cell for this test, the cell line “GeneBLAzer™ T-Rex GPR 119 CHO-K1 DA cells” that is commercially available from Invitrogen, was used. The cell was incubated in the DMEM media containing 1% dialyzed fetal bovine serum etc. The cell incubator was kept at constant temperature and constant humidity of 37° C., 5% CO2.
The human GPR119 receptor expressing cell was used to this test. Each of test compounds was added to be final concentrations of 0.1, 1, 10 μM in 96 well and tested in duplicate. A fixed amount of cell was added to each well of 96 well separately, and then treated with the test compound for 5 hours. After treatment of color development agent for 2 hours, the fluorescence value was determined with plate reader. To the luminous wavelength of control well, which was not treated with the agonist sample, but in which only a vehicle (i.e., cell) was contained, the ratio of the luminous wavelength of test well, which was treated with the agonist sample, was calculated, and then converted to obtain % value.
All the results were expressed as mean±SD, and each test groups and the control group were compared using student's t-test to adjudge the effects of each test groups.

SMILES	activity at 0.1 µM [%]	activity at 1 µM [%]	activity at 10 µM [%]	% Activation (human GPR119 receptor expressing cell, test concentrations 0.1, 1, 10 μM (concentration not given)) [%]
CS(=O)(=O)c1ccc(-c2ccc(OCC3CCN(CC4(C(F)(F)F)CCC4)CC3)cc2)cc1 [Compound 542, 4-((4′-(methylsulfonyl)biphenyl-4-yloxy)methyl)-1-((1-(trifluoromethyl)cyclobutyl)methyl)piperidine]	256	347	376	–
CC(C)(F)CN1CCC(COc2ccc(-c3ccc(C(=O)N4CCOCC4)cc3)cc2)CC1 [Compound 517, (4′-((1-(2-fluoro-2-methylpropyl)piperidin-4-yl)methoxy)biphenyl-4-yl)(morpholino)methanone]	192	244	291	–
CC(C)(F)CN1CCC(COc2ccc(-c3ccc(C(=O)N4CCC[C@@H]4CO)cc3)cc2)CC1 [Compound 555, (R)-(4′-((1-(2-fluoro-2-methylpropyl)piperidin-4-yl)methoxy)biphenyl-4-yl)(2-(hydroxymethyl)pyrrolidine-1-yl)methanone]	190	269	272	–
CN(CCO)C(=O)c1ccc(-c2ccc(OCC3CCN(CC(C)(C)F)CC3)cc2)cc1 [Compound 551, 4′-((1-(2-fluoro-2-methylpropyl)piperidin-4-yl)methoxy)-N-(2-hydroxyethyl)-N-methylbiphenyl-4-carboxamide]	135	232	288	–
CC(C)(F)CN1CCC(COc2ccc(-c3ccc(C(=O)N4CCC(F)(F)C4)cc3)cc2)CC1 [Compound 629, (3,3-difluoropyrrolidine-1-yl)(4′-((1-(2-fluoro-2-methylpropyl)piperidin-4-yl)methoxy)biphenyl-4-yl)methanone]	199	229	269	–
CS(=O)(=O)c1ccc(-c2ccc(OCC3CCN(CC4(C(F)(F)F)CC4)CC3)cc2)cc1 [Compound 500, 4-((4′-(methylsulfonyl)biphenyl-4-yloxy)methyl)-1-((1-(trifluoromethyl)cyclopropyl)methyl)piperidine]	214	298	310	–
CCC(F)(CC)CN1CCC(COc2ccc(-c3ccc(C(=O)N4CCC[C@H]4C(N)=O)cc3F)cc2C#N)CC1 [Compound 1119, (S)-1-(3′-cyano-4′-((1-(2-ethyl-2-fluorobutyl)piperidin-4-yl)methoxy)-2-fluorobiphenylcarbonyl)pyrrolidine-2-carboxamide]	406	428	482	–
CC(C)(F)CN1CCC(COc2ccc(-c3ccc(C(=O)N4CC[C@H](O)C4)cc3)cc2)CC1 [Compound 554, (S)-(4′-((1-(2-fluoro-2-methylpropyl)piperidin-4-yl)methoxy)biphenyl-4-yl)(3-hydroxypyrrolidine-1-yl)methanone]	141	219	279	–
CC(=O)N1CCN(C(=O)c2ccc(-c3ccc(OCC4CCN(CC(C)(C)F)CC4)cc3)cc2)CC1 [Compound 628, 1-(4-(4′-((1-(2-fluoro-2-methylpropyl)piperidin-4-yl)methoxy)biphenylcarbonyl)piperazin-1-yl)ethanone]	138	210	257	–
CC(C)(F)CN1CCC(COc2ccc(-c3ccc(C(=O)N4CCC[C@@H]4CO)c(F)c3)cc2)CC1 [Compound 641, (R)-(3-fluoro-4′-((1-(2-fluoro-2-methylpropyl)piperidin-4-yl)methoxy)biphenyl-4-yl)(2-(hydroxymethyl)pyrrolidine-1-yl)methanone]	167	220	246	–
CC(C)(F)CN1CCC(COc2ccc(-c3ccc(C(=O)N4CC[C@@H](O)C4)cc3)cc2)CC1 [Compound 553, (R)-(4′-((1-(2-fluoro-2-methylpropyl)piperidin-4-yl)methoxy)biphenyl-4-yl)(3-hydroxypyrrolidine-1-yl)methanone]	149	204	253	–

Continued, values first:

activity at 0.1 µM [%]	activity at 1 µM [%]	activity at 10 µM [%]	% Activation (human GPR119 receptor expressing cell, test concentrations 0.1, 1, 10 μM (concentration not given)) [%]	SMILES
256	296	252	–	O=C(c1ccc(-c2ccc(OCC3CCN(CC4(C(F)(F)F)CCC4)CC3)cc2)cc1)N1CCC[C@@H](O)C1 [Compound 794, (R)-(3-hydroxypiperidin-1-yl)(4′-((1-((1-(trifluoromethyl)cyclobutyl)methyl)piperidin-4-yl)methoxy)biphenyl-4-yl)methanone]
198	269	261	–	NC(=O)[C@@H]1CCCN1C(=O)c1ccc(-c2ccc(OCC3CCN(CC4(C(F)(F)F)CCC4)CC3)nc2)cc1F [Compound 722, (S)-1-(2-fluoro-4-(6-((1-((1-(trifluoromethyl)cyclobutyl)methyl)piperidin-4-yl)methoxy)pyridine-3-yl)benzoyl)pyrrolidine-2-carboxamide]
265	305	239	–	NC(=O)[C@@H]1CCCN1C(=O)c1ccc(-c2ccc(OCC3CCN(CC4(C(F)(F)F)CCC4)CC3)cc2)cc1 [Compound 635, (S)-1-(4′-((1-((1-(trifluoromethyl)cyclobutyl)methyl)piperidin-4-yl)methoxy)biphenylcarbonyl)pyrrolidine-2-carboxamide]
164	241	246	–	NC(=O)[C@H]1CCCCN1C(=O)c1ccc(-c2ccc(OCC3CCN(CC4(C(F)(F)F)CCC4)CC3)c(F)c2)cc1 [Compound 886, (R)-1-(3′-fluoro-4′-((1-((1-(trifluoromethyl)cyclobutyl)methyl)piperidin-4-yl)methoxy)biphenylcarbonyl)piperidin-2-carboxamide]
227	288	297	–	O=C(c1ccc(-c2ccc(OCC3CCN(CC4(C(F)(F)F)CC4)CC3)nc2)cc1)N1CCC(CO)CC1 [Compound 587, (4-(hydroxymethyl)piperidin-1-yl)(4-(6-((1-((1-(trifluoromethyl)cyclopropyl)methyl)piperidin-4-yl)methoxy)pyridine-3-yl)phenyl)methanone]
311	367	374	–	CCC(F)(CC)CN1CCC(COc2ccc(-c3ccc(C(=O)N4CCC[C@H]4C(N)=O)c(F)c3)cc2C#N)CC1 [Compound 1000, (S)-1-(3′-cyano-4′-((1-(2-ethyl-2-fluorobutyl)piperidin-4-yl)methoxy)-3-fluorobiphenylcarbonyl)pyrrolidine-2-carboxamide]
235	314	340	–	NC(=O)[C@@H]1CCCN1C(=O)c1ccc(-c2cnc(OCC3CCN(CC4(C(F)(F)F)CCC4)CC3)cn2)cc1 [Compound 1009, (S)-1-(4-(5-((1-((1-(trifluoromethyl)cyclobutyl)metb.yl)piperidin-4-yl)methoxy)pyrazine-2-yl)benzoyl)pyrrolidine-2-carboxamide]
160	228	262	–	O=C(c1ccc(-c2ccc(OCC3CCN(CC4(C(F)(F)F)CCC4)CC3)nc2)cc1F)N1CC[C@H](O)C1 [Compound 720, (8)-(2-fluoro-4-(6-((1-((1-(trifluoromethyl)cyclobutyl)methyl)piperidin-4-yl)methoxy)pyridine-3-yl)phenyl)(3-hydroxypyrrolidine-1-yl)methanone]
251	296	306	–	NC(=O)[C@@H]1CCCN1C(=O)c1ccc(-c2ccc(OCC3CCN(CC4(C(F)(F)F)CCC4)CC3)c(F)c2)cc1 [Compound 837, (S)-1-(3′-fluoro-4′-((1-((1-(trifluoromethyl)cyclobutyl)methyl)piperidin-4-yl)methoxy)biphenylcarbonyl)pyrrolidine-2-carboxamide]
257	313	303	–	CC(C)(CN1CCC(COc2ccc(-c3ccc(C(=O)N4CCC[C@@H](O)C4)cc3)cn2)CC1)C(F)(F)F [Compound 829, (R)-(3-hydroxypiperidin-1-yl)(4-(6-((1-(3,3,3-trifluoro-2,2-dimethylpropyl)piperidin-4-yl)methoxy)pyridin-3-yl)phenyl)methanone]
187	348	402	402	CC(C)(F)CN1CCC(COc2ccc(-c3ccc(C(=O)N4CCC[C@H]4C(N)=O)c(F)c3)c(C#N)c2)CC1 [Compound 1028]
